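All cell lines were grown in 96-well plates and treated with compound for 48 hours. GI50 marks 50% less growth.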 Activity calls are given as the source filed them. Rule as the data show it: active = GI50 up to about 1.1 µM and inactive = higher.
Assays:
Experiment in all cases: NCI anticancer screen, dose series, 48 h
RXF 393 = system: RXF 393
SNB-75 = system: SNB-75
SNB-19 = system: SNB-19
NCI-H23 = system: NCI-H23
OVCAR-3 = system: OVCAR-3
HOP-62 = system: HOP-62
BT-549 = system: BT-549
U-251 = system: U-251
A498 = system: A498
NCI-H460 = system: NCI-H460
HCT-116 = system: HCT-116
SK-OV-3 = system: SK-OV-3
LXFL 529 = system: LXFL 529
MDA-N = system: MDA-N
T47D = system: T47D
TK-10 = system: TK-10
Malme-3M = system: Malme-3M
DU-145 = system: DU-145
KM12 = system: KM12
Hs-578T = system: Hs-578T

Measured: GI50

COc1cc(OC(=O)c2ccccc2)cc2c1C(=O)C=CC2=O
inactive: RXF 393 10.9 µM | SNB-75 22.6 µM | SNB-19 30.6 µM | NCI-H23 16.2 µM | OVCAR-3 5.32 µM | HOP-62 42.9 µM | BT-549 15.8 µM | U-251 16.4 µM | A498 18.5 µM | NCI-H460 34.2 µM | HCT-116 6.35 µM | SK-OV-3 20 µM | LXFL 529 12.7 µM | MDA-N 6.44 µM | T47D 1.89 µM | TK-10 17.9 µM | Malme-3M 15.3 µM | DU-145 17.7 µM | KM12 15.1 µM | Hs-578T 25.1 µM

COc1cc(OC)c(C2CC=Cc3c(OC)cc(OC)c(OC)c32)cc1OC (stereo not drawn)
inactive: RXF 393 > 100 µM | SNB-75 > 100 µM | NCI-H23 > 100 µM | OVCAR-3 > 100 µM | HOP-62 > 100 µM | U-251 > 100 µM | A498 > 100 µM | NCI-H460 > 100 µM | HCT-116 > 100 µM | SK-OV-3 > 100 µM | LXFL 529 > 100 µM | TK-10 > 100 µM | Malme-3M > 100 µM | KM12 > 100 µM

CC(C)(C)[Si](C)(C)O/N=C\c1ccc(O[Si](C)(C)C(C)(C)C)cc1
inactive: RXF 393 24.5 µM | SNB-75 72.1 µM | SNB-19 72.4 µM | NCI-H23 > 100 µM | OVCAR-3 20.2 µM | HOP-62 > 100 µM | U-251 25.2 µM | A498 52.4 µM | NCI-H460 > 100 µM | HCT-116 24.2 µM | SK-OV-3 > 100 µM | LXFL 529 84.9 µM | TK-10 > 100 µM | Malme-3M > 100 µM | KM12 > 100 µM

COc1cc(C2C(C(=O)Nc3ccccc3)=C(C)NC(C)=C2C(=O)Nc2ccccc2)ccc1O
inactive: RXF 393 > 100 µM | SNB-75 13.6 µM | SNB-19 33.7 µM | NCI-H23 39.5 µM | OVCAR-3 23 µM | HOP-62 > 100 µM | U-251 48.9 µM | A498 > 100 µM | NCI-H460 43.7 µM | HCT-116 34.5 µM | LXFL 529 24.3 µM | TK-10 > 100 µM | Malme-3M 41.2 µM | KM12 31 µM

C(=N\Nc1ccccc1)/c1nc2ccccc2nc1/C=N/Nc1ccccc1
inactive: RXF 393 16.3 µM | SNB-75 12.2 µM | SNB-19 18.9 µM | NCI-H23 13.3 µM | OVCAR-3 16.6 µM | HOP-62 15.9 µM | A498 16.6 µM | NCI-H460 13.9 µM | HCT-116 12.7 µM | SK-OV-3 22 µM | LXFL 529 11 µM | TK-10 15.8 µM | Malme-3M 24.9 µM | KM12 13 µM

O=C(O)c1ccc([I+]c2ccccc2)cc1
inactive: RXF 393 > 100 µM | SNB-75 > 100 µM | SNB-19 > 100 µM | NCI-H23 > 100 µM | OVCAR-3 > 100 µM | HOP-62 > 100 µM | U-251 > 100 µM | A498 > 100 µM | NCI-H460 > 100 µM | HCT-116 > 100 µM | SK-OV-3 > 100 µM | LXFL 529 > 100 µM | TK-10 > 100 µM | Malme-3M > 100 µM | KM12 > 100 µM

O=S(=O)(OI(OI(OS(=O)(=O)C(F)(F)F)c1ccccc1)c1ccccc1)C(F)(F)F
inactive: RXF 393 17.3 µM | SNB-75 60.8 µM | SNB-19 44.3 µM | OVCAR-3 93.3 µM | HOP-62 90.8 µM | U-251 > 100 µM | A498 > 100 µM | NCI-H460 39.5 µM | HCT-116 23.7 µM | LXFL 529 26.1 µM | TK-10 > 100 µM | Malme-3M 11.7 µM | KM12 28.2 µM

Cc1cccc(N2C(=O)C(=O)C(c3nc4ccccc4s3)/C(=N/NC(=S)NN)C2=O)c1C (stereo not drawn)
inactive: RXF 393 > 100 µM | SNB-75 > 100 µM | SNB-19 > 100 µM | NCI-H23 > 100 µM | OVCAR-3 > 100 µM | HOP-62 > 100 µM | U-251 > 100 µM | A498 > 100 µM | NCI-H460 > 100 µM | HCT-116 > 100 µM | SK-OV-3 > 100 µM | LXFL 529 > 100 µM | TK-10 > 100 µM | Malme-3M > 100 µM | KM12 > 100 µM

N#Cc1ccccc1NC(=O)C(=O)C(C(=O)c1ccncc1)C1OC(=O)c2ccccc21 (stereo not drawn)
inactive: RXF 393 > 100 µM | SNB-75 > 100 µM | SNB-19 > 100 µM | NCI-H23 > 100 µM | OVCAR-3 > 100 µM | HOP-62 > 100 µM | U-251 > 100 µM | A498 > 100 µM | NCI-H460 > 100 µM | HCT-116 > 100 µM | SK-OV-3 > 100 µM | LXFL 529 > 100 µM | TK-10 > 100 µM | Malme-3M > 100 µM | KM12 > 100 µM

CC(/C(=N/NC(=O)C(N)=O)c1c(Cl)ccc(Cl)c1O)C1(O)C(=O)Nc2ccccc21 (stereo not drawn)
inactive: RXF 393 55.3 µM | SNB-75 28.6 µM | SNB-19 72.4 µM | NCI-H23 50.6 µM | OVCAR-3 28.6 µM | HOP-62 > 100 µM | U-251 50.1 µM | A498 17.8 µM | NCI-H460 28.3 µM | HCT-116 41 µM | SK-OV-3 > 100 µM | LXFL 529 32.9 µM | TK-10 46.9 µM | Malme-3M 64.9 µM | KM12 30.4 µM

C[C@@H]1OC(=O)N2CCCC(=C3SCCCS3)C12 (stereo partly drawn)
inactive: RXF 393 68.4 µM | SNB-75 51.2 µM | SNB-19 > 100 µM | NCI-H23 64 µM | OVCAR-3 > 100 µM | U-251 > 100 µM | A498 > 100 µM | NCI-H460 > 100 µM | HCT-116 44.4 µM | SK-OV-3 > 100 µM | LXFL 529 44.8 µM | TK-10 > 100 µM | Malme-3M > 100 µM | KM12 60.3 µM

Cc1cc2c(cc1C)NC(=O)C(NC(=O)/C=C/c1ccccc1)C=N2 (stereo not drawn)
inactive: RXF 393 16.1 µM | SNB-75 44.1 µM | SNB-19 64.3 µM | OVCAR-3 20.1 µM | HOP-62 > 100 µM | U-251 23.9 µM | A498 37.2 µM | NCI-H460 30.8 µM | HCT-116 20.8 µM | SK-OV-3 74.8 µM | LXFL 529 27.9 µM | TK-10 50.6 µM | Malme-3M 35.9 µM | KM12 19.5 µM

From ChEMBL document CHEMBL1201862, “PubChem BioAssay data set” (2004)
